Experimental data from US20060148646A1, “Controlled release fertilizers containing calcium sulfate and processes for making same” (priority 2004, published 2006).

Tests used:
[1] = Controlled Release Soil Test (irrigated soil burial test); format: physicochemical
From the text: To measure the relative solubilities of the products in soil, an irrigated soil burial test (“Controlled Release Soil Test”) was devised such that granules could be retrieved for measurement of their nitrogen content. The following is a description of the test.
Controlled Release Soil Test
Procedure for Controlled Release Soil Test
1. Screen the sample to obtain −6+7 Tyler mesh granules for the test.
2. Label a freezer container with the test description.
3. Place the freezer container on the 1200 g balance and tare out.
4. Place 300 g of potting soil with a 40% moisture content into the container and record the weight.
5. Over the soil place two (2) pieces of fiberglass mesh with 14 meshes to the inch and 1/16 inch openings.
6. Tare out the container with the soil and fiberglass mesh screens.
7. Spread 5 grams of −6+7 Tyler mesh granules over the screen in a single layer and record the weight.
8. Place a large square of fiberglass mesh over the granules, with a stainless steel screen cut to fit over it, so that the shape of the container has been mirrored.
9. Once this is shaped, tare out the container and add 150 g of soil and record the weight.
10. Repeat this process for each sample to be tested (in triplet if possible).
11. After all containers are completed, fill a mist spray bottle with de-ionized water and prime.
12. Tare out the weight of the primed mist bottle.
13. Mist 4 g of water into each container and immediately place the lid on container and seal.
14. After the fertilizer granules have been submerged in a humid soil environment for the allotted time (9 hours, 24 hours, and 3 days), the 150 g of soil is removed from the container.
15. Weigh to the nearest 0.0001 g in aluminum weigh pan and tare out.
16. Gently remove the two pieces of fiberglass mesh, which contains the remaining fertilizer granules.
17. Transfer the granules to the aluminum weigh pan and record the weight of the fertilizer granules.
18. Place the fertilizer granules in a laboratory oven to dry at low temperature (50° C.) for 13 hours.
19. Remove the dry sample from the oven, weigh to the nearest 0.0001 g and record weight.
20. Place the dry fertilizer sample into a 125 mL plastic sample bottle containing 20 g of de-ionized water.
21. Allow the sample to dissolve for 3 hours.
22. Place approximately 1 ml aliquot of the sample solution onto the sample stage of a refractometer (e.g., Abbe Refractometer).
23. Record the refractive index and temperature of the solution.
24. Calculate the percent urea retained from the original fertilizer sample.
To measure the slow or controlled release of the present compositions a Controlled Release Soil Test was employed, described as follows. […]

[2] = tested on: Hybrid “419” Bermudagrass; test: Visual turf quality rating, golf course fairway (Example 18); format: in vivo
Procedure: (§1) The effect of nitrogen type was evaluated on the quality of hybrid bermudagrass grown under golf course conditions. Five fertilizer compositions were tested which included […] of the present invention, urea and Scotts Turf Builder. Nitrogen sources were applied individually at a rate of 1 lb N/1,000 ft^2 on Apr. 19, 2004. Field test plots were rated weekly for visual quality and scanned for digital image analysis.
(§2) Research was conducted on a fairway at Pleasant Valley Country Club in Little Rock, Arkansas. The hybrid “419” was bermudagrass was grown and was mowed at 0.5 inches height and clippings were not collected. Nitrogen sources were applied at a rate of 1 lb N/1,000 ft^2 on Apr. 19, 2004. Plots were 3 ft.×6 ft. Air temperatures on April 19th were 65-75° F. Turf quality ratings were made weekly by a single evaluator. Quality ratings considered turf growth and color. A rating of 6 was considered the minimum acceptable turf; a rating of 9 was not considered favorable from a management standpoint since growth was excessive and required frequent mowing. A visual rating of 8 would be considered excellent. Plots were also evaluated weekly using a digital image analysis. Digital images were taken with a Nikon CoolPix 880 camera with a shutter speed of 1/30 sec. and an aperture of f/2.8. Images were downloaded to a personal computer for subsequent analysis. Ratings were terminated when the nitrogen treated plots could not be visually separated from the control. Treatments consisted of 4 single plot replications. The experimental design was a completely randomized design.

[3] = tested on: Hybrid “419” Bermudagrass; test: Digital image analysis, measured color hue (Example 18); format: in vivo; design: unit not given here; conditions: mean of 4 repetitions; fertilizer applied Apr. 19, 2004
Procedure: as §1, §2

[4] = 1 lb N/1,000 ft^2 applied Apr. 19, 2004

Q: For `N.N.O=S(=O)(O)O` [AS, (NH4)2SO4], which “Control Release Soil Test 9 HR (nitrogen retained)” value ([1]; ammonium sulfate based granulation products, 9 hours) is on record?
A: Its value is 56.8%.

Q: And the “Control Release Soil Test 24 HR (nitrogen retained)” value ([1]; ammonium sulfate based granulation products, 24 hours)?
A: Its value is 30.0%.

Q: And the “Control Release Soil Test 3 DAY (nitrogen retained)” value ([1]; ammonium sulfate based granulation products, 3 days)?
A: The value was 0%.

Q: Which results are given for `NC(N)=O` [Urea, Carbamide]?
A: time to complete dissolution in the Controlled Release Soil Test [1]: ≤ 9 h; Visual Turf Quality Jun. 1, 2004 [2, 4]: 7.7 cde; Visual Turf Quality Jun. 7, 2004 [2, 4]: 7.7bcde; Visual Turf Quality Jun. 14, 2004 [2, 4]: 7.6bcd; Visual Turf Quality Jun. 21, 2004 [2, 4]: 7.5bc; Visual Turf Quality May 3, 2004 [2, 4]: 7.5abcd; Visual Turf Quality May 9, 2004 [2, 4]: 7.3bcd; Visual Turf Quality May 16, 2004 [2, 4]: 7.5abcd; Visual Turf Quality May 24, 2004 [2, 4]: 7.7bcdef; Visual Turf Quality Apr. 19, 2004 ([2]; day of application, 1 lb N/1,000 ft^2, 6 = minimum acceptable, 8 excellent): 6.5; Hue Jun. 1, 2004 [3]: 31.589; Hue Jun. 7, 2004 [3]: 27.101; Hue Jun. 14, 2004 [3]: 28.324; Hue Jun. 21, 2004 [3]: 25.750; Hue May 3, 2004 [3]: 29.085; Hue May 10, 2004 [3]: 30.702; Hue May 17, 2004 [3]: 30.920; Hue May 24, 2004 [3]: 29.943
